Measured values published in US8093406B2, “Cyclic sulfones with aminobenzyl substitution useful as BACE inhibitors” (Novartis AG, priority 2008, dated 2012).
Counter-ions that a name gives are not always drawn.

Target: T1, Human BACE (Homo sapiens, UniProt P56817)
T1 construct: Recombinant BACE (extracellular domain, expressed in baculovirus and purified using standard methods); made in house
Assay: Test 1: Inhibition of Human BACE
Assay type: biochemical
Settings: not given
Description: Test 1: Inhibition of Human BACE
Recombinant BACE (extracellular domain, expressed in baculovirus and purified using standard methods) at 0.1 to 10 nM concentrations is incubated with the test compound at various concentrations for 1 hour at room temperature in 10 to 100 mM acetate buffer, pH 4.5, containing 0.1% CHAPS. […] IC50 values are calculated from percentage of inhibition of BACE-activity as a function of the test compound concentration.

T1 sequence (P56817 46-457 limits assumed): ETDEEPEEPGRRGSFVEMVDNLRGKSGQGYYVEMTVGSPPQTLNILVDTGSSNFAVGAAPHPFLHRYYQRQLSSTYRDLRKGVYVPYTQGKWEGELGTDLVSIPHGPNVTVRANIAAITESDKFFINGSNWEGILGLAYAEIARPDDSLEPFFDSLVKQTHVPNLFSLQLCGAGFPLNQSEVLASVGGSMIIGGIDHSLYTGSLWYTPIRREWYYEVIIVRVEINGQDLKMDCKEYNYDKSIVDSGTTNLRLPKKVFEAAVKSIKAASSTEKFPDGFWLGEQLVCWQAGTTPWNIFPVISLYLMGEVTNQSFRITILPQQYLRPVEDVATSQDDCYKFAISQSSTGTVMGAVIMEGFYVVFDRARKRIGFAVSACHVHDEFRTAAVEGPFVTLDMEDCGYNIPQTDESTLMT

IC50 [nM]	Structure (SMILES)
4	COC[C@@H](Oc1cc(C[C@@H]2C[S@@+]([O-])C[C@H](NCc3cccc(C(C)(C)C)c3)C2=O)cc(F)c1N)C(F)(F)F [Example 64, (1R,3S,5R)-3-[4-Amino-3-fluoro-5-((R)-2,2,2-trifluoro-1-methoxymethyl-ethoxy)-benzyl]-5-(3-tert-butyl-benzylamino)-1-oxo-tetrahydro-thiopyran-4-one trifluoroacetate]

Same assay, conditions: Test 1; recombinant BACE extracellular domain, acetate buffer pH 4.5, 1 hour incubation at room temperature, fluorescence-quenched APP-derived peptide substrate; read-out: Bace IC50

Structure (SMILES)	IC50 [nM]
CC(C)(C)c1cccc(CN[C@H]2CS(=O)(=O)C[C@@H](Cc3cc(F)c(N)c(O[C@H](CN)C(F)(F)F)c3)[C@@H]2O)c1 [Example 39, (3S,4S,5R)-3-[4-Amino-3-((R)-1-aminomethyl-2,2,2-trifluoro-ethoxy)-5-fluoro-benzyl]-5-(3-tert-butyl-benzylamino)-1,1-dioxo-hexahydro-1lambda*6*-thiopyran-4-ol]	71
COC[C@@H](Oc1cc(C[C@@H]2CSC[C@H](NCc3cccc(C(C)(C)C)c3)[C@H]2O)cc(F)c1N)C(F)(F)F [Example 40, (3S,4S,5R)-3-[4-Amino-3-fluoro-5-((R)-2,2,2-trifluoro-1-methoxymethyl-ethoxy)-benzyl]-5-(3-tert-butyl-benzylamino)-tetrahydro-thiopyran-4-ol hydrochloride]	247
COC[C@@H](Oc1cc(C[C@@H]2C[S+]([O-])C[C@H](NCc3cccc(C4(C)CC4)c3)[C@H]2O)cc(F)c1N)C(F)(F)F (stereo partly drawn) [Example 43, (3S,4S,5R)-3-[4-Amino-3-fluoro-5-((R)-2,2,2-trifluoro-1-methoxymethyl-ethoxy)-benzyl]-5-[3-(1-methyl-cyclopropyl)-benzylamino]-1-oxo-hexahydro-1lambda*4*-thiopyran-4-ol hydrochloride]	10
COC[C@@H](Oc1cc(C[C@@H]2C[S@@+]([O-])C[C@H](NCc3ccc4c(c3)OC(C)(C)C4)[C@H]2O)cc(F)c1N)C(F)(F)F [Example 50, (1R,3S,4S,5R)-3-[4-Amino-3-fluoro-5-((R)-2,2,2-trifluoro-1-methoxymethyl-ethoxy)-benzyl]-5-[(2,2-dimethyl-2,3-dihydro-benzofuran-6-ylmethyl)-amino]-1-oxo-tetrahydro-thiopyran-4-ol dihydrochloride]	2400
C[C@H](Oc1cc(C[C@@H]2C[S@@+]([O-])C[C@H](NCc3ccc4c(c3)C(C)(C)OC4)[C@H]2O)cc(F)c1N)C(F)(F)F [Example 52, (1R,3S,4S,5R)-3-[4-Amino-3-fluoro-5-((S)-2,2,2-trifluoro-1-methyl-ethoxy)-benzyl]-5-[(3,3-dimethyl-1,3-dihydro-isobenzofuran-5-ylmethyl)-amino]-1-oxo-hexa-hydro-1lambda*4*-thiopyran-4-ol]	117
COCC(Oc1cc(CC2C[S+]([O-])CC(NCc3cccc(OC(F)F)c3)C2O)cc(F)c1N)C(F)(F)F (stereo not drawn) [Example 62]	334
C[Si](C)(C)c1cccc(CNC2C[S+]([O-])CC(Cc3cc(F)c(N)c(OCC(F)(F)F)c3)C2O)c1 (stereo not drawn) [Example 63]	118

Results, then the molecule that gave them:

IC50 [nM]	Structure (SMILES)
27	COC[C@@H](Oc1cc(C[C@@H]2C[S@@+]([O-])C[C@H](NCc3cccc(C(C)(C)C(F)(F)F)c3)[C@H]2O)cc(F)c1N)C(F)(F)F [Example 44, (1R,3S,4S,5R)-3-[4-Amino-3-fluoro-5-((R)-2,2,2-trifluoro-1-methoxymethyl-ethoxy)-benzyl]-1-oxo-5-[3-(2,2,2-trifluoro-1,1-dimethyl-ethyl)-benzylamino]-tetrahydro-thiopyran-4-ol]
26	COC[C@@H](Oc1cc(C[C@@H]2C[S@@+]([O-])C[C@H](NCc3cc(OC)cc(C(C)C)c3)[C@H]2O)cc(F)c1N)C(F)(F)F [Example 48, (1R,3S,4S,5R)-3-[4-Amino-3-fluoro-5-((R)-2,2,2-trifluoro-1-methoxymethyl-ethoxy)-benzyl]-5-(3-isopropyl-5-methoxy-benzylamino)-1-oxo-tetrahydro-thiopyran-4-ol]
15	COC[C@@H](Oc1cc(C[C@@H]2C[S@@+]([O-])C[C@H](NCc3cc(OC)cc(C(C)(C)C)c3)[C@H]2O)cc(F)c1N)C(F)(F)F [Example 49, (1R,3S,4S,5R)-3-[4-Amino-3-fluoro-5-((R)-2,2,2-trifluoro-1-methoxymethyl-ethoxy)-benzyl]-5-(3-tert-butyl-5-methoxy-benzylamino)-1-oxo-tetrahydro-thiopyran-4-ol dihydrochloride]
384	COCC(Oc1cc(CC2C[S+]([O-])CC(NCc3cccc(OC)c3)C2O)cc(F)c1N)C(F)(F)F (stereo not drawn) [Example 59]
